Measured values published in patent US20230295118A1 (EnhancedBio Inc., priority 2022, published 2023).

Columns and labels:
Format in all cases: cell-based
CDK6 = molecular target: T1, CDK6 (Homo sapiens, UniProt Q00534); experiment: CDK6 degradation (DC50, Dmax)
T1 construct: endogenous in cells

[1] = test system: mantle cell lymphoma cell (Mino or JeKo-1); experiment: Antiproliferative effect, MTS cell viability assay; conditions: 72 h, mantle cell lymphoma cell (Mino or JeKo-1), MTS assay, read-out: IC50 (anti-proliferation)
In short: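 MTS read-out (formazan absorbance at 490 nm) after 72 h exposure of Mino cells to 0–1 μM compound (0.0001, 0.001, 0.01, 0.1, 1 μM). Palbociclib and abemaciclib served as positive controls.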

CDK4 = molecular target: T2, CDK4 (Homo sapiens, UniProt P11802); experiment: CDK4 degradation (DC50, Dmax)
T2 construct: endogenous in cells
T2 sequence (P11802 whole entry): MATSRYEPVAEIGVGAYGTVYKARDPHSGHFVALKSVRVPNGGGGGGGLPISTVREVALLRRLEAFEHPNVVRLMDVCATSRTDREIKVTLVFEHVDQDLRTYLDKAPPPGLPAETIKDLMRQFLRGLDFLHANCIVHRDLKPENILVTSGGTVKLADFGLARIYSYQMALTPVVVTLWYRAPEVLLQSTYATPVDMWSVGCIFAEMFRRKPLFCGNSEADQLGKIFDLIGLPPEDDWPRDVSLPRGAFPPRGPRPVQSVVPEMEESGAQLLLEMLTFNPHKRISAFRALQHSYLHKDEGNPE

T1 sequence (Q00534 whole entry): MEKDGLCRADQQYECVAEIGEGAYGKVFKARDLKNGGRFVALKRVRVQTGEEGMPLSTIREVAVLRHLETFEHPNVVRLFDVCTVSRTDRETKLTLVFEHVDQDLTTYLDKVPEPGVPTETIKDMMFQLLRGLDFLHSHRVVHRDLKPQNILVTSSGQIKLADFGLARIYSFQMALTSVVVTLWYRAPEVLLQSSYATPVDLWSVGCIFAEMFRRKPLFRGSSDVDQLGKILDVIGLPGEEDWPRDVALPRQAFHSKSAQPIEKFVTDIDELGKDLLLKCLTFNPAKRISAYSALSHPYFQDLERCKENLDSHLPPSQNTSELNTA

DC50 (CDK6) [nM]	Dmax (CDK6) [%]	IC50 [1] [nM]	DC50 (CDK4) [nM]	Dmax (CDK4) [%]	SMILES
50 to 200	> 60	50 to 200	50 to 200	> 60	CC(=O)c1c(C)c2cnc(Nc3ccc(N4CCN(CC5CCN(c6cccc7c6C(=O)N(C6CCC(=O)NC6=O)C7=O)CC5)CC4)cn3)nc2n(C2CCCC2)c1=O (centres unmarked) [Compound 78, 4-(4-((4-(6-((6-acetyl-8-cyclopentyl-5-methyl-7-oxo-7,8-dihydropyrido[2,3-d]pyrimidin-2-yl)amino)pyridin-3-yl)piperazin-1-yl)methyl)piperidin-1-yl)-2-(2,6-dioxopiperidin-3-yl) isoindoline-1,3-dione]
50 to 200	> 80	< 50	50 to 200	> 60	CC(=O)c1c(C)c2cnc(Nc3ccc(N4CCN(CCCCNc5ccc6c(c5)C(=O)N(C5CCC(=O)NC5=O)C6=O)CC4)cn3)nc2n(C2CCCC2)c1=O (centres unmarked) [Compound 53, 5-((4-(4-(6-((6-acetyl-8-cyclopentyl-5-methyl-7-oxo-7,8-dihydropyrido[2,3-d]pyrimidin-2-yl)amino)pyridin-3-yl)piperazin-1-yl)butyl)amino)-2-(2,6-dioxopiperidin-3-yl)isoindoline-1,3-dione]
< 50	> 80	< 50	< 50	> 80	Cc1nc2c(F)cc(-c3nc(Nc4ccc(CC5CCN(CC6CN(c7ccc8c(c7)CN(C7CCC(=O)NC7=O)C8=O)C6)CC5)cn4)ncc3F)cc2n1C(C)C (centres unmarked) [Compound 140, 3-(5-(3-((4-((6-((5-fluoro-4-(4-fluoro-1-isopropyl-2-methyl-1H-benzo[d]imidazol-6-yl)pyrimidin-2-yl)amino)pyridin-3-yl)methyl)piperidin-1-yl)methyl)azetidin-1-yl)-1-oxoisoindolin-2-yl)piperidine-2,6-dione]
50 to 200	> 80	< 50	50 to 200	> 80	CC(=O)c1c(C)c2cnc(Nc3ccc(N4CCN(CC5CCN(C(=O)N6CCC(CN7CCN(c8ccc9c(c8)C(=O)N(C8CCC(=O)NC8=O)C9=O)CC7)CC6)CC5)CC4)cn3)nc2n(C2CCCC2)c1=O (centres unmarked) [Compound 84, 5-(4-((1-(4-((4-(6-((6-acetyl-8-cyclopentyl-5-methyl-7-oxo-7,8-dihydropyrido[2,3-d]pyrimidin-2-yl)amino)pyridin-3-yl)piperazin-1-yl)methyl)piperidine-1-carbonyl)piperidin-4-yl)methyl)piperazin-1-yl)-2-(2,6-dioxopiperidin-3-yl) isoindoline-1,3-dione]
50 to 200	> 60	< 50	50 to 200	> 60	CC(=O)c1c(C)c2cnc(Nc3ccc(N4CCN(CCCCNc5ccc6c(c5)CN(C5CCC(=O)NC5=O)C6=O)CC4)cn3)nc2n(C2CCCC2)c1=O (centres unmarked) [Compound 54, 3-(5-((4-(4-(6-((6-acetyl-8-cyclopentyl-5-methyl-7-oxo-7,8-dihydropyrido[2,3-d]pyrimidin-2-yl)amino)pyridin-3-yl)piperazin-1-yl)butyl)amino)-1-oxoisoindolin-2-yl)piperidine-2,6-dione]
< 50	> 80	< 50	< 50	> 80	Cc1nc2c(F)cc(-c3nc(Nc4ccc(CN5CCN(CC6CCN(c7ccc(N8CCC(=O)NC8=O)cc7)CC6)CC5)cn4)ncc3F)cc2n1C(C)C [Compound 108, 1-(4-(4-((4-((6-((5-fluoro-4-(4-fluoro-1-isopropyl-2-methyl-1H-benzo[d]imidazol-6-yl)pyrimidin-2-yl)amino)pyridin-3-yl)methyl)piperazin-1-yl)methyl)piperidin-1-yl)phenyl) dihydropyrimidine-2,4(1H,3H)-dione]
50 to 200	> 80	< 50	< 50	> 80	CC(=O)c1c(C)c2cnc(Nc3ccc(N4CCN(CCN5CCN(c6ccc7c(c6)C(=O)N(C6CCC(=O)NC6=O)C7=O)CC5)CC4)cn3)nc2n(C2CCCC2)c1=O (centres unmarked) [Compound 67, 5-(4-(2-(4-(6-((6-acetyl-8-cyclopentyl-5-methyl-7-oxo-7,8-dihydropyrido[2,3-d]pyrimidin-2-yl)amino)pyridin-3-yl)piperazin-1-yl)ethyl)piperazin-1-yl)-2-(2,6-dioxopiperidin-3-yl) isoindoline-1,3-dione]
> 200	> 50	> 200	> 200	> 50	CC(=O)c1c(C)c2cnc(Nc3ccc(N4CCN(C(=O)N5CCC(CN6CCC(c7ccc8c(c7)CN(C7CCC(=O)NC7=O)C8=O)CC6)CC5)CC4)cn3)nc2n(C2CCCC2)c1=O (centres unmarked) [Compound 18, 3-(5-(1-((1-(4-(6-((6-acetyl-8-cyclopentyl-5-methyl-7-oxo-7,8-dihydropyrido[2,3-d]pyrimidin-2-yl)amino)pyridin-3-yl)piperazine-1-carbonyl)piperidin-4-yl)methyl)piperidin-4-yl)-1-oxoisoindolin-2-yl) piperidine-2,6-dione]
< 50	> 80	< 50	< 50	> 80	Cc1nc2c(F)cc(-c3nc(Nc4ccc(CN5CCN(C6CN(c7ccc(C(=O)NC8CCC(=O)NC8=O)cc7)C6)CC5)cn4)ncc3F)cc2n1C(C)C (centres unmarked) [Compound 96, N-(2,6-dioxopiperidin-3-yl)-4-(3-(4-((6-((5-fluoro-4-(4-fluoro-1-isopropyl-2-methyl-1H-benzo[d]imidazol-6-yl)pyrimidin-2-yl)amino)pyridin-3-yl)methyl)piperazin-1-yl)azetidin-1-yi)benzamide]
< 50	> 80	< 50	< 50	> 80	CC(=O)c1c(C)c2cnc(Nc3ccc(N4CCN(CCNc5ccc6c(c5)CN(C5CCC(=O)NC5=O)C6=O)CC4)cn3)nc2n(C2CCCC2)c1=O (centres unmarked) [Compound 48, 3-(5-((2-(4-(6-((6-acetyl-8-cyclopentyl-5-methyl-7-oxo-7,8-dihydropyrido[2,3-d]pyrimidin-2-yl)amino)pyridin-3-yl)piperazin-1-yl)ethyl)amino)-1-oxoisoindolin-2-yl)piperidine-2,6-dione]
> 200	> 60	50 to 200	50 to 200	> 60	CC(=O)c1c(C)c2cnc(Nc3ccc(N4CCN(CC5CCN(C(=O)N6CCC(N7CCN(c8ccc9c(c8)C(=O)N(C8CCC(=O)NC8=O)C9=O)CC7)CC6)CC5)CC4)cn3)nc2n(C2CCCC2)c1=O (centres unmarked) [Compound 89, 5-(4-(1-(4-((4-(6-((6-acetyl-8-cyclopentyl-5-methyl-7-oxo-7,8-dihydropyrido[2,3-d]pyrimidin-2-yl)amino)pyridin-3-yl)piperazin-1-yl)methyl)piperidine-1-carbonyl)piperidin-4-yl)piperazin-1-yl)-2-(2,6-dioxopiperidin-3-yl)isoindoline-1,3-dione]
< 50	> 80	< 50	< 50	> 80	Cc1nc2c(F)cc(-c3nc(Nc4ccc(CC5CCN(CC6CCN(c7ccc(NC8CCC(=O)NC8=O)cc7)CC6)CC5)cn4)ncc3F)cc2n1C(C)C (centres unmarked) [Compound 160, 3-((4-(4-((4-((6-((5-fluoro-4-(4-fluoro-1-isopropyl-2-methyl-1H-benzo[d]imidazol-6-yl)pyrimidin-2-yl)amino)pyridin-3-yl)methyl)piperidin-1-yl)methyl)piperidin-1-yl)phenyl)amino) piperidine-2,6-dione]
> 200	> 50	50 to 200	> 200	> 50	CC(=O)c1c(C)c2cnc(Nc3ccc(N4CCN(C(=O)N5CCC(N6CCN(c7ccc8c(c7)CN(C7CCC(=O)NC7=O)C8=O)CC6)CC5)CC4)cn3)nc2n(C2CCCC2)c1=O (centres unmarked) [Compound 4, 3-(5-(4-(1-(4-(6-((6-acetyl-8-cyclopentyl-5-methyl-7-oxo-7,8-dihydropyrido[2,3-d]pyrimidin-2-yl)amino)pyridin-3-yl)piperazine-1-carbonyl)piperidin-4-yl)piperazin-1-yl)-1-oxoisoindolin-2-yl)piperidine-2,6-dione]
> 200	> 60	50 to 200	50 to 200	> 60	Cc1nc2c(F)cc(-c3nc(Nc4ccc(CN5CCN(C(=O)C6CCN(c7ccc8c(c7)CN(C7CCC(=O)NC7=O)C8=O)CC6)CC5)cn4)ncc3F)cc2n1C(C)C (centres unmarked) [Compound 154]
< 50	> 60	< 50	< 50	> 60	CC(=O)c1c(C)c2cnc(Nc3ccc(N4CCN(C(=O)C5CN(c6ccc(C(=O)NC7CCC(=O)NC7=O)cc6)C5)CC4)cn3)nc2n(C2CCCC2)c1=O (centres unmarked) [Compound 123, 4-(3-(4-(6-((6-acetyl-8-cyclopentyl-5-methyl-7-oxo-7,8-dihydropyrido[2,3-d]pyrimidin-2-yl)amino)pyridin-3-yl)piperazine-1-carbonyl)azetidin-1-yl)-N-(2,6-dioxopiperidin-3-yl)benzamide]
< 50	> 60	< 50	< 50	> 80	Cc1nc2c(F)cc(-c3nc(Nc4ccc(CC5CCN(C6CCN(c7ccc8c(c7)CN(C7CCC(=O)NC7=O)C8=O)CC6)CC5)cn4)ncc3F)cc2n1C(C)C (centres unmarked) [Compound 170, 3-(5-(4-((6-((5-fluoro-4-(4-fluoro-1-isopropyl-2-methyl-1H-benzo[d]imidazol-6-yl)pyrimidin-2-yl)amino)pyridin-3-yl)methyl)-[1,4′-bipiperidin]-1′-yl)-1-oxoisoindolin-2-yl)piperidine-2,6-dione]
